Results as given in BindingDB's records for doi:10.1016/S0960-894X(00)80308-X (1993).

Molecular target: Human immunodeficiency virus type 1 protease (Human immunodeficiency virus 1, UniProt Q72874)
Assay: ChEBML_159632
Procedure: Inhibitory concentration required to inhibit HIV-1 protease was determined

Ki [µM]	Compound
30	CC(C)(C)OC(=O)N[C@H](C(=O)C(=C=N)c1ccc([N+](=O)[O-])cc1)C(=O)C(N)c1ccccc1 (some centres not stated)
30	N=C=C(C(=O)[C@H](Cc1ccccc1)NC(=O)OCc1ccccc1)c1ccc([N+](=O)[O-])cc1
